Patent US9884819B2, “Tetrahydrocarbazole inhibitors of SIRT1 receptors” (Auspex Pharmaceuticals, Inc., priority 2016, dated 2018)

Experiments:
[1] = test system: drosophila model of HD; conditions: cited from earlier work
[2] = In vitro human liver microsomal stability assay; assay type: in vitro ADME; conditions: for Percent Remaining (%) 0 min / Percent Remaining (%) 15 min / Percent Remaining (%) 30 min / Percent Remaining (%) 60 min / Percent Remaining (%) 120 min: human liver microsomes 2 mg/mL, 1 μM compound; for Percent Remaining (%) 0 min / Percent Remaining (%) 15 min / Percent Remaining (%) 30 min / Percent Remaining (%) 60 min / Percent Remaining (%) 120 min / Percent Remaining (%) 120 min w/o NADPH: mean; for Percent Remaining (%) 120 min w/o NADPH: 120 min without NADPH; for CLint scaled at 1 μM / half-life at 1 μM: pH 7.4
Procedure: Human liver microsomal stability assays are conducted at 2 mg per mL liver microsome protein with an NADPH-generating system consisting of NADP (1 mM, pH 7.4), […] (5 mM, pH 7.4), and glucose-6-phosphate dehydrogenase (1 unit/mL). Test compounds were prepared as solutions in DMSO and added to the assay mixture (1 μM, final concentration in incubation) and were incubated at 37±1° C. […] Samples were centrifuged (920×g for 10 min at 10° C.) in 96-well plates. Supernatant fractions were analyzed by LC-MS/MS to determine the percent remaining and estimate the degradation half-life of the test compounds.

[3] = cited from earlier work
[4] = target: CYP3A4 (Homo sapiens, UniProt P08684); test: In vitro metabolism using human cytochrome P450 enzymes (CYP3A4); conditions: for Clint: Cyp 3A4; for Percent Remaining (%) 0 min: Cyp 3A4, 0 min; for Percent Remaining (%) 0 min / Percent Remaining (%) 15 min / Percent Remaining (%) 30 min / Percent Remaining (%) 45 min / Percent Remaining (%) 60 min: mean; for Percent Remaining (%) 15 min: Cyp 3A4, 15 min; for Percent Remaining (%) 30 min: Cyp 3A4, 30 min; for Percent Remaining (%) 45 min: Cyp 3A4, 45 min; for Percent Remaining (%) 60 min: Cyp 3A4, 60 min; for half-life at 0.2 mM: human, pH 7.4
Sequence of CYP3A4 (P08684 whole entry): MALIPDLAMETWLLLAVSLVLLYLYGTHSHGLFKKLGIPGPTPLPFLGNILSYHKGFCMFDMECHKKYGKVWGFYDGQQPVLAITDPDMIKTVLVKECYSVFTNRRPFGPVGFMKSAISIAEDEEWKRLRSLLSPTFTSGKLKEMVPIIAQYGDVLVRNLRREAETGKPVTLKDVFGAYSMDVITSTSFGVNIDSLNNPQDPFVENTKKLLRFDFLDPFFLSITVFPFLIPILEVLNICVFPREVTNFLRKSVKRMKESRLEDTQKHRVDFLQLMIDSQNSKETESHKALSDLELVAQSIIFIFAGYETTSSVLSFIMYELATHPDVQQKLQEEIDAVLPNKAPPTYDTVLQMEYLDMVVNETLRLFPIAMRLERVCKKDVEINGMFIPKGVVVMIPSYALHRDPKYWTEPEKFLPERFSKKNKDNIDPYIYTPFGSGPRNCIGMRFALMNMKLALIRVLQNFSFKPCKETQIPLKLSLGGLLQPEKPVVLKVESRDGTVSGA

[5] = target: T1, CYP1A2 (Homo sapiens, UniProt P05177); test: In vitro metabolism using human cytochrome P450 enzymes (CYP1A2); assay type: in vitro ADME; conditions: for Clint / half-life at 0.2 mM: Cyp 1A2; for Percent Remaining (%) 0 min: Cyp 1A2, 0 min; for Percent Remaining (%) 0 min / Percent Remaining (%) 15 min / Percent Remaining (%) 30 min / Percent Remaining (%) 45 min / Percent Remaining (%) 60 min: mean; for Percent Remaining (%) 15 min: Cyp 1A2, 15 min; for Percent Remaining (%) 30 min: Cyp 1A2, 30 min; for Percent Remaining (%) 45 min: Cyp 1A2, 45 min; for Percent Remaining (%) 60 min: Cyp 1A2, 60 min; for half-life at 0.2 mM: human, recombinant CYP1A2 (baculovirus expression system), pH 7.4
T1 construct: purchased BD Biosciences, San Jose, Calif
T1 sequence (P05177 1-516): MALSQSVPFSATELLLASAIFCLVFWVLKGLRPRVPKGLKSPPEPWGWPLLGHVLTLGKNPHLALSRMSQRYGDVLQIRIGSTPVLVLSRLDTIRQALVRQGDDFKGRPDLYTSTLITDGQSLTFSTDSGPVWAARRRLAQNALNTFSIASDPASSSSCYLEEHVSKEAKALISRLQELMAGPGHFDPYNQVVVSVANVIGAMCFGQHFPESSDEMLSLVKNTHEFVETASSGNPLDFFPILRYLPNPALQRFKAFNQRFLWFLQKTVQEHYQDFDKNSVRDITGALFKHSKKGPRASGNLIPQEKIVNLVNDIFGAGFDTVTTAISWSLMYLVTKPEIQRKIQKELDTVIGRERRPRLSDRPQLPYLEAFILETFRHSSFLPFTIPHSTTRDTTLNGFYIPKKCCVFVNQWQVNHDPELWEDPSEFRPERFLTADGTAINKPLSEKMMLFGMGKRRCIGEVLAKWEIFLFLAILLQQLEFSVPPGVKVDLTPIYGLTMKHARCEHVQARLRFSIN

[6] = test system: R6/2 mouse; conditions: transgenic r6/2 mouse model; cited from earlier work
[7] = human liver microsomes, degradation half-life
[8] = human, single-dose phase, average
[9] = human, single-dose phase, range
[10] = recombinant CYP3A4 (baculovirus expression system)

SMILES | Percent Remaining (%) 0 min [2] | Percent Remaining (%) 15 min [2] | Percent Remaining (%) 30 min [2] | Percent Remaining (%) 60 min [2] | Percent Remaining (%) 120 min [2] | Percent Remaining (%) 120 min w/o NADPH ([2]; human liver microsomes) | CLint scaled at 1 μM ([2]; human liver microsomes) | half-life at 1 μM [2, 7] | Clint [4] | Percent Remaining (%) 0 min [4] | Percent Remaining (%) 15 min [4] | Percent Remaining (%) 30 min [4] | Percent Remaining (%) 45 min [4] | Percent Remaining (%) 60 min [4] | Clint [5] | Percent Remaining (%) 0 min [5] | Percent Remaining (%) 15 min [5] | Percent Remaining (%) 30 min [5] | Percent Remaining (%) 45 min [5] | Percent Remaining (%) 60 min [5] | further results
NC(=O)C1CCCc2c1[nH]c1ccc(Cl)cc21 (stereo not shown) [Example 1, 6-chloro-2,3,4,9-tetrahydro-1H-carbazole-1-carboxamide] | 100% | 93.37% | 90.46% | 73.66% | 52.94% | 102.02% | 13.6 mL/min/kg | 128 min | 0.00013 mL/min/pmol | 100.00% | 63.43% | 55.02% | 54.21% | 51.13% | 0.0002 mL/min/pmol | 100.00% | 46.28% | 24.21% | 16.02% | 11.55% | Neuroprotection [1]: neuroprotective; Intersubject variability (% CV) in AUC(0,∞), average [3, 8]: 56%; Intersubject variability (% CV) in Cmax, average [3, 8]: 33%; Intersubject variability (% CV) in AUC(0,∞) [3, 9]: 35-71%; Intersubject variability (% CV) in Cmax [3, 9]: 23-46%; Safety and tolerability in human subjects ([3]; recent clinical trial (Westerberg et al.)): safe and well-tolerated; half-life at 0.2 mM [4, 10]: 52.5 min; half-life at 0.2 mM [5]: 16.9 min; Effects on life span and psychomotor and histological endpoints [6]: statistically significant effects on life span
[2H]C1(C(N)=O)CCCc2c1[nH]c1ccc(Cl)cc21 (stereo not shown) [Example 2, 6-chloro-1-deutero-2,3,4,9-tetrahydro-1H-carbazole-1-carboxamide] | 100% | 100.12% | 85.44% | 71.84% | 59.95% | 100.36% | 11.4 mL/min/kg | 152 min | 0.00013 mL/min/pmol | 100.00% | 69.07% | 59.14% | 54.63% | 53.05% | 0.0002 mL/min/pmol | 100.00% | 48.53% | 27.30% | 17.05% | 12.99% | half-life at 0.2 mM [4, 10]: 52.8 min; half-life at 0.2 mM [5]: 17.7 min
[2H]C1([2H])c2c([nH]c3ccc(Cl)cc23)C(C(N)=O)C([2H])([2H])C1([2H])[2H] (stereo not shown) [Example 3, 6-chloro-2,3,4,9-tetrahydro-1H-carbazole-2,2,3,3,4,4-d6-1-carboxamide] | 100% | 92.39% | 86.96% | 70.69% | 52.83% | 96.74% | 13.5 mL/min/kg | 128 min | 0.00010 mL/min/pmol | 100.00% | 69.80% | 61.49% | 63.89% | 60.39% | 0.00019 mL/min/pmol | 100.00% | 45.84% | 26.01% | 17.34% | 12.82% | half-life at 0.2 mM [4, 10]: 70.7 min; half-life at 0.2 mM [5]: 17.9 min
O=C(c1ccc(F)cc1)C1CCN(CCn2c(=O)[nH]c3ccccc3c2=O)CC1 [Ketanserin] | 100% | 78.08% | 64.73% | 44.75% | 26.52% | 97.70% |  |  |  |  |  |  |  |  |  |  |  |  |  |  | Clint ([2]; human liver microsomes): 39.88 mL/min/kg; T1/2 [2, 7]: 43.58 min
Cc1ncc2n1-c1ccc(Cl)cc1C(c1ccccc1F)=NC2 [Midazolam] |  |  |  |  |  |  |  |  | >0.0014 mL/min/pmol | 100.00% | BQL | BQL | BQL | BQL |  |  |  |  |  |  | half-life at 0.2 mM ([4]; recombinant enzyme): < 5 min
CCOc1ccc(NC(C)=O)cc1 [Phenacetin] |  |  |  |  |  |  |  |  |  |  |  |  |  |  | 0.00018 mL/min/pmol | 100.00% | 53.02% | 31.01% | 20.20% | 15.08% | 
